Patent US6635432B1, “Peptide potentiation of acid-sensory ion channel in pain” (University of Iowa Research Foundation, priority 2000, dated 2003)
Where no end group is shown, it is not given here.

Key:
Type in all cases: cell-based
[1] = target: T1, ASICα (Homo sapiens, UniProt P78348); test: Whole-cell patch-clamp of HEK-293T cells transfected with ASICα; parameters: expressed in transfected cells; settings: HEK293 cells; amiloride 100 μM, FMRFamide 100 μM, pH 5
T1 sequence (P78348 1-528): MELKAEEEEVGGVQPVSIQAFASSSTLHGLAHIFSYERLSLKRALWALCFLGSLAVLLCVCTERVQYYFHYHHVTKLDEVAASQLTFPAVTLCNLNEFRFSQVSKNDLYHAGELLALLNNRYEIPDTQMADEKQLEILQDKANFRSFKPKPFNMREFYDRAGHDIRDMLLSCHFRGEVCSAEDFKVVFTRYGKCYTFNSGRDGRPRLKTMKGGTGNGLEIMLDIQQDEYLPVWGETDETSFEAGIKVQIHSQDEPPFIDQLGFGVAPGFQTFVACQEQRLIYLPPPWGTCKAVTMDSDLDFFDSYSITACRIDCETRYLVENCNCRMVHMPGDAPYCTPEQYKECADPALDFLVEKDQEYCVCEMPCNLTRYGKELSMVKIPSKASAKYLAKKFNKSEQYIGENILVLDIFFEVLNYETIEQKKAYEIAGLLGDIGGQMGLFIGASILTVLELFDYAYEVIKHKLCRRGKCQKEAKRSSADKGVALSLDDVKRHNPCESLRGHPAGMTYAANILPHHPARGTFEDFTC
Description: Human ASICα was cloned from brain polyA RNA. Rat ASICβ and mouse DRASIC were cloned from DRG RNA. […] Constructs were cloned into pMT3 for expression.
To identify transfected cells, pGreenlantern vector encoding green fluorescent protein (Gibco, Gaithersburg, Md.) was co-transfected with ASICα at a ratio of 1:6; transfected cells were identified using epifluorescence microscopy. Cells were studied 1-2 days after transfection.
(§1) The pipette solution contained, in mM: 120 KCl, 10 NaCl, 2 MgCl2, 5 EGTA, 10 HEPES. Perfusion of cells with different solutions was done by placing the appropriate outlet in front of the cell. Data were recorded with an AXOPATCH 200 (Axon Instruments, Foster City, Calif.) and stored on a digital tape recorder. Digitization was executed by acquiring data at 400 Hz using pClamp6 (Axon Instruments, Foster City, Calif.).

[2] = target: T1, ASICα; test: Two-electrode voltage-clamp of Xenopus oocytes expressing ASICα; parameters: expressed in transfected cells; host or cells: Xenopus laevis oocytes (nuclear injection of pMT3 plasmid); settings: for effect on H+-gated ASICα current (inactivation, sustained current): pH 5, agents 50 μM (A18Famide 25 μM), added prior to and during acidification
Description: (§2) Human ASICα was cloned from brain polyA RNA. Rat ASICβ and mouse DRASIC were cloned from DRG RNA. Human BNC1 was cloned as described in Price et al. (1996)(Price, M. P., Snyder, P. M., and Welsh, M. J. (1996). Cloning and expression of a novel human brain Na^+ channel. J Biol Chem 271, 7879-7882). Constructs were cloned into pMT3 for expression.
(§3) Expression of the cDNA constructs in Xenopus oocytes was accomplished by injection of plasmid DNA into the nucleus of defolliculated albino Xenopus laevis oocytes (Nasco, Fort Atkinson, Wis.) as described previously (Adams, C. M., Snyder, P. M., Price, M. P., and Welsh, M. J. (1998). Protons activate brain Na^+ channel 1 by inducing a conformational change that exposes a residue associated with neurodegeneration. J Biol Chem 273, 30204-30207). Plasmids were injected at concentrations of 100 ng/μl for most experiments. Oocytes were incubated in modified Barth's solution at 18° C. for 12-26 hr after injection. Cells injected with DRASIC were allowed to incubate for 24-48 hr before analysis.
Whole-cell currents in oocytes were measured using a two-electrode voltage-clamp as previously described (Adams, et al. (1998)). Oocytes were bathed in frog Ringers solution containing, in mM: 116 NaCl, LiCl or KCl, 0.4 CaCl2, MgCl2, 5 4-(2-hydroxyethyl)-1-piperazineethanesulfonic acid (HEPES), pH 7.4. Acidic solutions were buffered with 5 mM 2-(4-morpholino)-ethanesulfonic acid (MES) instead of HEPES. Membrane voltage was held at −60 mV unless otherwise noted. Most peptides and naloxone were obtained from Sigma Chemical Co. (St. Louis, Mont.) and were added to the extracellular solution. The peptide FRRFamide was synthesized by Research Genetics (Huntsville, Ala.).

[3] = target: T2, DRASIC (Mus musculus, UniProt Q6X1Y6); test: Two-electrode voltage-clamp of Xenopus oocytes expressing DRASIC; settings: neuropeptide FF 50 μM added prior to acidification
T2 construct: expressed in transfected cells; host or cells: Xenopus laevis oocytes (nuclear injection of pMT3 plasmid)
T2 sequence (Q6X1Y6 1-530): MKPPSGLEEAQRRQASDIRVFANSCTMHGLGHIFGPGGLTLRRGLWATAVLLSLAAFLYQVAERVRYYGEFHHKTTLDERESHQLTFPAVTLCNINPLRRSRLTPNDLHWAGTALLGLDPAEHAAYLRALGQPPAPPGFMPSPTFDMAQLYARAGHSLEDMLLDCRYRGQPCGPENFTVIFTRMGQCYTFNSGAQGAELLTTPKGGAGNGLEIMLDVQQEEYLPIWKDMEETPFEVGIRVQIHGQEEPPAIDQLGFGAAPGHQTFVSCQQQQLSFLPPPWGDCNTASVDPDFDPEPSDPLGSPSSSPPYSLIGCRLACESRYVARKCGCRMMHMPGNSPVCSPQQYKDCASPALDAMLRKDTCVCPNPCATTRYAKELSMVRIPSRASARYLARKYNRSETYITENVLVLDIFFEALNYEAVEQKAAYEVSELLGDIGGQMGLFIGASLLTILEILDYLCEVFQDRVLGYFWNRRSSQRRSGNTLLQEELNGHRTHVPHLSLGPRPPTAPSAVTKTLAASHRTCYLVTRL
Description: as §2, with “expression. The validity of the constructs was confirmed by DNA sequencing.” for “expression.”
as §3
(§4) Whole-cell currents in oocytes were measured using a two-electrode voltage-clamp as previously described (Adams, et al. (1998)). […]

[4] = target: T3, BNC1 (Homo sapiens, UniProt Q16515); test: Two-electrode voltage-clamp of Xenopus oocytes expressing BNC1; settings: pH 5
T3 construct: expressed in transfected cells; host or cells: Xenopus laevis oocytes (nuclear injection of pMT3 plasmid)
T3 sequence (Q16515 1-512): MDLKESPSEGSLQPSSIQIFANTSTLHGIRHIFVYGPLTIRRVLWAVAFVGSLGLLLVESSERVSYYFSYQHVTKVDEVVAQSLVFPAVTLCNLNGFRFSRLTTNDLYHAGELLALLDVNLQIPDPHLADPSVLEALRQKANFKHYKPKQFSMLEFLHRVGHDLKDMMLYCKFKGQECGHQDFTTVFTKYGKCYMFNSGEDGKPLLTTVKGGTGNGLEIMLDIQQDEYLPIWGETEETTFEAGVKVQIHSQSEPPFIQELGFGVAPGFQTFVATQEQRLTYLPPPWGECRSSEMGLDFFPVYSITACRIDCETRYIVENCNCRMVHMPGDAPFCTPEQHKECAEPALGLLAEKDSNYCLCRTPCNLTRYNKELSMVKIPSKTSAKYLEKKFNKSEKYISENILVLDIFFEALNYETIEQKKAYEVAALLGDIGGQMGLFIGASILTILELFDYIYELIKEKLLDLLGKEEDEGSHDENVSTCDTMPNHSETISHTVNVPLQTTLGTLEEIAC
Description: as §2, with “expression. The validity of the constructs was confirmed by DNA sequencing.” for “expression.”
as §3, §4

[5] = test system: proton-gated currents in cultured rat DRG neurons; test: Whole-cell patch-clamp of proton-gated currents in cultured DRG neurons
Method: Rat DRG neurons were cultured from Norway rats as described in Benson et al. (1999)(Benson, C. J., Eckert, S. P., and McCleskey, E. W. (1999). Acid-evoked currents in cardiac sensory neurons: A possible mediator of myocardial ischemic sensation. Circulation Research 84, 921-928). Cells were allowed to incubate overnight at room temperature and studies were done 1 to 2 days after isolation.
as §1, with “During whole-cell patch-clamping of DRG neurons and transfected HEK-293T cells, the cells were bathed with an extracellular solution that contained, in mM: 128 NaCl, 5 MgCl2, 1.8 CaCl2, 5.4 KCl, 5.55 glucose, 20 HEPES, pH 7.5 or 5. The” for “The”
Whole-cell patch-clamp recordings were used to investigate the effect of FMRFamide on proton-gated currents in cultured rat DRG neurons. As previously reported (Akaike, N., and Ueno, S. (1994). Proton-induced current in neuronal cells. Prog Neurobiol 43, 73-83), acidification to pH 5 produced rapidly activating and inactivating currents in the sensory neurons of the DRG (FIGS. 1A-D). […] The presence of the neuropeptide immediately before acidification also altered inactivation (FIGS. 1C, 1D).

[6] = target: T4, ASICβ (Rattus norvegicus, UniProt P55926); test: Two-electrode voltage-clamp of Xenopus oocytes expressing ASICβ; settings: pH 5, peptide 50 μM
T4 construct: expressed in transfected cells; host or cells: Xenopus laevis oocytes (nuclear injection of pMT3 plasmid)
T4 sequence (P55926 1-559 isoform P55926-3): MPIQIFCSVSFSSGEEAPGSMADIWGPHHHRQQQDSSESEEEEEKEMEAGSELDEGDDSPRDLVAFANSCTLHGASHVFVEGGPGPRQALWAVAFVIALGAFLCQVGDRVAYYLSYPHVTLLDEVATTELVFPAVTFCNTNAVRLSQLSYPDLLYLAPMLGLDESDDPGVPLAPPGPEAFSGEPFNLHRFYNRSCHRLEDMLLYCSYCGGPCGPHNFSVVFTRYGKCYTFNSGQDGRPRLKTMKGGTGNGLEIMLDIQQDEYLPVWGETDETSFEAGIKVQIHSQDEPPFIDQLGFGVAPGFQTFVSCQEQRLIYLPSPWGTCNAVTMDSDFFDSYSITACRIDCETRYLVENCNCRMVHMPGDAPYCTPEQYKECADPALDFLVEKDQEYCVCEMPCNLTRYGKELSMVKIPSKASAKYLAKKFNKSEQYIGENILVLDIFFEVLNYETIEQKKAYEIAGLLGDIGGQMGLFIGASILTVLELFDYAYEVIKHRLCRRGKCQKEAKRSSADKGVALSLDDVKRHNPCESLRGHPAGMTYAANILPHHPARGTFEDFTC
Description: as §2, with “expression. The validity of the constructs was confirmed by DNA sequencing.” for “expression.”
as §3, §4

N=C(N)NC(=O)c1nc(Cl)c(N)nc1N [amiloride]
effect of amiloride on FMRFamide-induced sustained current [1]: inhibited
effect of amiloride on FMRFamide-induced sustained current ([2]; amiloride 1 mM, FMRFamide 50 μM, pH 5): inhibited

Phe-Leu-Phe-Gln-Pro-Gln-Arg-Phe-amide [neuropeptide FF]
effect on inactivation of H+-gated DRASIC currents [3]: slowed the inactivation of H^+-gated DRASIC currents
effect on acid-gated BNC1 currents [4]: appeared unaffected
size of effects compared with FMRFamide ([5]; pH 5, 50 μM each): smaller than those generated by FMRFamide
effect on inactivation of proton-gated current and sustained current ([5]; pH 5, FMRFamide 50-100 μM, neuropeptide FF 50 μM): altered inactivation of proton-gated DRF currents
current generated by agent added alone ([5]; without acidification): generated no current on its own
effect on H+-gated ASICβ current (inactivation, sustained current) [6]: appeared unaffected
effect on H+-gated ASICα current (inactivation, sustained current) [2]: produced only minor effects on inactivation rate but no sustained current
effect on H+-gated ASICα current (inactivation, sustained current) ([2]; listed as Neuropeptide FF): subtle effects on ASICα currents, slowing inactivation but not generating appreciable sustained current

CN1CC[C@]23c4c5ccc(O)c4O[C@H]2[C@@H](O)C=C[C@H]3[C@H]1C5 [morphine]
mimicking of the FMRFamide effect on proton-gated current ([5]; morphine 50 μM): did not mimic it
effect on H+-gated ASICα current (inactivation, sustained current) [2]: neither morphine nor naloxone altered ASICα current

C=CCN1CC[C@]23c4c5ccc(O)c4O[C@H]2C(=O)CC[C@@]3(O)[C@H]1C5 [naloxone]
block of the FMRFamide effect on proton-gated current ([5]; naloxone 100 μM): did not block the effect of FMRFamide
effect of naloxone on FMRFamide-induced ASICα sustained current ([2]; naloxone 500 μM applied before FMRFamide 50 μM, pH 5): neither morphine nor naloxone altered ASICα current

A18Famide: mammalian FMRFamide-like peptide, terminates with the sequence PQRFamide (AGEGLNSQFWSLAAPQRF-NH2; UniProt O15130 93-110, looked up)
effect on H+-gated ASICα current (inactivation, sustained current) [2]: Neither A18Famide nor MERF altered ASICα current

metenkephalin-Arg-Phe (YGGFMRF; Met-enkephalin-Arg-Phe; UniProt P01210 261-267, looked up) [MERF]
effect on H+-gated ASICα current (inactivation, sustained current) [2]: Neither A18Famide nor MERF altered ASICα current
